According to patent US8841513B2, “Procedure for producing transgenic plants providing high starch content and yield and high amylose/amylopectin balance” (priority 2008, dated 2014):
Where two headings read alike, the source gives them in different places.

Columns and labels:
[1] = biological target: T1, GP of E. coli (Escherichia coli, UniProt P0AC86, E280D/L281V); assay: Substrate specificity of GP of E. coli (products by HPLC with amperometric detection); format: biochemical
T1 construct: His tag (pET-15b) (N); made in house; host or cells: E. coli BL21 (DE3) C43 transformed with pET15b-glgP (CECT 7071)
Experimental: The enzymatic reactions were carried out at 37° C. GP activities were measured in the sense of the analysed polyglucan degradation. […] The reaction was stopped after boiling for 2 minutes and centrifuging at 30,000 g for 20 minutes. The existing released G1P in the supernatant was determined by any of the following methods: • By spectrophotometry. 300 μL of mixture containing Hepes 50 mM pH 7, EDTA 1 mM, MgCl2 2 mM, KCl 15 mM, NAD^+ 0.6 mM, a unit of phosphoglucomutase and another of glucose-6-phosphate dehydrogenase of Leuconostoc mesenteroides, and 30 μL of supernatant resulting from step one were incubated for 20 minutes. The production of NADH was monitored at 340 nm using a Multiskan EX spectrophotometer (Labsystems). […] 40 μL of the supernatant from step 1 were subjected to high affinity liquid chromatography using a DX-500 Dionex system fitted to a Carbo-Pac PA10 column and amperometric detection.

[2] = biological target: T1, GP of E. coli; format: biochemical
Experimental: The enzymatic reactions were carried out at 37° C. GP activities were measured in the sense of the analysed polyglucan degradation. In a first step, 50 μL of reaction mixture consisting of 50 mM HEPES (pH 7.5), 30 mM phosphate buffer (pH 7.5), polyglucan (equivalent to 10 mM glucose) and protein extract, were incubated for 15 minutes. The reaction was stopped after boiling for 2 minutes and centrifuging at 30,000 g for 20 minutes. The existing released G1P in the supernatant was determined by any of the following methods: • By spectrophotometry. 300 μL of mixture containing Hepes 50 mM pH 7, EDTA 1 mM, MgCl2 2 mM, KCl 15 mM, NAD^+ 0.6 mM, a unit of phosphoglucomutase and another of glucose-6-phosphate dehydrogenase of Leuconostoc mesenteroides, and 30 μL of supernatant resulting from step one were incubated for 20 minutes. The production of NADH was monitored at 340 nm using a Multiskan EX spectrophotometer (Labsystems). […] 40 μL of the supernatant from step 1 were subjected to high affinity liquid chromatography using a DX-500 Dionex system fitted to a Carbo-Pac PA10 column and amperometric detection.
The unit (U) is defined as the amount of enzyme that catalyzes the production of 1 μmol of product per minute.

[3] = glucan 5 mM glucose, 30 mM Pi, 3 U recombinant GP, 3 hours, 37° C.
[4] = effector 2 mM, GP activity, no effector = 100
[5] = effector 3 mM, GP activity, no effector = 100
[6] = cell without unit, glucan 5 mM glucose, 3 U recombinant GP, 3 hours, 37° C.

T1 sequence (P0AC86 other isoform, or with tags, fused parts or gaps E280D/L281V): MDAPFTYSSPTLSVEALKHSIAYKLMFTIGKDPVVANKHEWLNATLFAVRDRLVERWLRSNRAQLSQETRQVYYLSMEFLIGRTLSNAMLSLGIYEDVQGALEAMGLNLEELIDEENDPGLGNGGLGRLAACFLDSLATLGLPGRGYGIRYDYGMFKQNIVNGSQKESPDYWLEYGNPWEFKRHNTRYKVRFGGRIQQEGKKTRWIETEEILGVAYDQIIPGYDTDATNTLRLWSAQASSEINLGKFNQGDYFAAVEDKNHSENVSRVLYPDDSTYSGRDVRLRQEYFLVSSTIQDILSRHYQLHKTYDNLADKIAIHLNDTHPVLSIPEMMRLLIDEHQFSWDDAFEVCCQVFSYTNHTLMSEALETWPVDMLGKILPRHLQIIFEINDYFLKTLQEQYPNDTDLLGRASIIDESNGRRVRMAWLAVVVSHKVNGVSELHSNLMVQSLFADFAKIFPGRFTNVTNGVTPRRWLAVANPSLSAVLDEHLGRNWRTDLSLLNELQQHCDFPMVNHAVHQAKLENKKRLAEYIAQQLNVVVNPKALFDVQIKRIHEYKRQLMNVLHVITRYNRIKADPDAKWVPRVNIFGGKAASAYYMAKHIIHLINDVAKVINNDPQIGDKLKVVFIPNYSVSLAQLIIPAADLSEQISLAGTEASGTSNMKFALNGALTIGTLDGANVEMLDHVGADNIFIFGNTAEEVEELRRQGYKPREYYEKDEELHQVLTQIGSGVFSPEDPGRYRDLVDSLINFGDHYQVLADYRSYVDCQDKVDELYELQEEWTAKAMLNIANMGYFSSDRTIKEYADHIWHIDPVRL

In the case of `OC[C@H]1O[C@H](O[C@H]2[C@H](O)[C@@H](O)C(O)O[C@@H]2CO)[C@H](O)[C@@H](O)[C@@H]1O` (mixture of isomers) [Maltose], the “Recognition as substrate by the GP of E. coli” value (shortened to “Recognition as substrate”) [1] is reported as “does not act on”, the “Products: G1P” value [1, 3] is reported as “b.d.l” and the “Products: Maltose” value [1, 3] is reported as 5 mM.

In the case of `O=C(O)[C@H](O)COP(=O)(O)O` [3-phosphoglycerate], the “Inhibition of the GP of E. coli” value [2] is reported as “not to be inhibited”, the “Activity (U/mg protein)” value ([2]; effector 2 mM) is reported as 8.9 U/mg protein and the “% control” value [2, 4] is reported as 111%.

With `Nc1ncnc2c1ncn2[C@@H]1O[C@H](COP(=O)(O)OP(=O)(O)O[C@H]2O[C@H](CO)[C@@H](O)[C@H](O)[C@H]2O)[C@@H](O)[C@H]1O` [ADPG, ADPglucose] the “Inhibition of the GP of E. coli” value [2] was “not to be inhibited”, the “Activity (U/mg protein)” value ([2]; effector 2 mM) was 8.3 U/mg protein and the “% control” value [2, 4] was 104%.

With `Nc1ncnc2c1ncn2[C@@H]1O[C@H](COP(=O)(O)OP(=O)(O)O)[C@@H](O)[C@H]1O` [ADP] the “Inhibition of the GP of E. coli” value [2] was “not to be inhibited”, the “Activity (U/mg protein)” value ([2]; effector 2 mM) was 7.0 U/mg protein and the “% control” value [2, 4] was 88%.

`Nc1ncnc2c1ncn2[C@@H]1O[C@H](COP(=O)(O)O)[C@@H](O)[C@H]1O` [AMP] was tested, and the “Inhibition of the GP of E. coli” value [2] was “not to be inhibited”, the “Activity (U/mg protein)” value ([2]; effector 3 mM) was 7.6 U/mg protein and the “% control” value [2, 5] was 95%.

In the case of `Nc1ncnc2c1ncn2[C@@H]1O[C@H](COP(=O)(O)OP(=O)(O)OP(=O)(O)O)[C@@H](O)[C@H]1O` [ATP], the “Inhibition of the GP of E. coli” value [2] is reported as “not to be inhibited”, the “Activity (U/mg protein)” value ([2]; effector 2 mM) is reported as 4.8 U/mg protein and the “% control” value [2, 4] is reported as 60%.

`Nc1ncnc2c1ncn2[C@@H]1O[C@@H]2COP(=O)(O)O[C@H]2[C@H]1O` [Cyclic AMP] was tested, and the “% control” value [2] was 91% and the “Activity (U/mg protein)” value [2] was 7.3 U/mg protein.

In the case of `O=C(COP(=O)(O)O)[C@@H](O)[C@H](O)[C@H](O)COP(=O)(O)O` [Fructose-1,6-bisphosphate], the “Inhibition of the GP of E. coli” value [2] is reported as “not to be inhibited”, the “Activity (U/mg protein)” value ([2]; effector 2 mM) is reported as 9.0 U/mg protein and the “% control” value [2, 4] is reported as 113%.

In the case of `O=C(CO)[C@@H](O)[C@H](O)[C@H](O)COP(=O)(O)O` [Fructose-6-phosphate], the “Inhibition of the GP of E. coli” value [2] is reported as “not to be inhibited”, the “Activity (U/mg protein)” value ([2]; effector 2 mM) is reported as 8.4 U/mg protein and the “% control” value [2, 4] is reported as 105%.

For `O=C[C@H](O)[C@@H](O)[C@H](O)[C@H](O)COP(=O)(O)O` [Glucose-6-phosphate], the “Inhibition of the GP of E. coli” value [2] was “not to be inhibited”, the “Activity (U/mg protein)” value ([2]; effector 2 mM) was 7.6 U/mg protein and the “% control” value [2, 4] was 95%.

In the case of `OC[C@H]1O[C@H](O[C@H]2[C@H](O)[C@@H](O)[C@@H](O[C@H]3[C@H](O)[C@@H](O)[C@@H](O[C@H]4[C@H](O)[C@@H](O)[C@@H](O[C@H]5[C@H](O)[C@@H](O)[C@@H](O[C@H]6[C@H](O)[C@@H](O)[C@@H](O[C@H]7[C@H](O)[C@@H](O)C(O)O[C@@H]7CO)O[C@@H]6CO)O[C@@H]5CO)O[C@@H]4CO)O[C@@H]3CO)O[C@@H]2CO)[C@H](O)[C@@H](O)[C@@H]1O` (some centres unmarked) [Maltoheptose], the “Recognition as substrate” value [1] is reported as “recognizes”, the “Products: G1P” value [1, 3] is reported as 2.1 mM and the “Products: Maltoheptose” value [1, 3] is reported as 1.3 mM. The “Products: Maltohexose” value [1, 3] was 1 mM, the “Products: Maltopentaose” value [1, 3] was 0.4 mM and the “Products: Maltose” value [1, 3] was “b.d.l”. The “Products: Maltotetraose” value [1, 3] was 0.2 mM and the “Products: Maltotriose” value [1, 3] was “b.d.l”.

In the case of `OC[C@H]1O[C@H](O[C@H]2[C@H](O)[C@@H](O)[C@@H](O[C@H]3[C@H](O)[C@@H](O)[C@@H](O[C@H]4[C@H](O)[C@@H](O)[C@@H](O[C@H]5[C@H](O)[C@@H](O)[C@@H](O[C@H]6[C@H](O)[C@@H](O)C(O)O[C@@H]6CO)O[C@@H]5CO)O[C@@H]4CO)O[C@@H]3CO)O[C@@H]2CO)[C@H](O)[C@@H](O)[C@@H]1O` (some centres unmarked) [Maltohexose], the “Recognition as substrate” value [1] is reported as “recognizes”, the “Products: Maltoheptose” value [1, 6] is reported as 0.1 and the “Products: G1P” value [1, 3] is reported as 1.7 mM. For the same compound, the “Products: Maltohexose” value [1, 3] was 2.1 mM, the “Products: Maltopentaose” value [1, 3] was 0.5 mM and the “Products: Maltose” value [1, 3] was “b.d.l”. For the same compound, the “Products: Maltotetraose” value [1, 3] was 0.6 mM and the “Products: Maltotriose” value [1, 3] was “b.d.l”.

With `OC[C@H]1O[C@H](O[C@H]2[C@H](O)[C@@H](O)[C@@H](O[C@H]3[C@H](O)[C@@H](O)[C@@H](O[C@H]4[C@H](O)[C@@H](O)C(O)O[C@@H]4CO)O[C@@H]3CO)O[C@@H]2CO)[C@H](O)[C@@H](O)[C@@H]1O` (some centres unmarked) [Maltotetraose] the “Recognition as substrate” value [1] was “does not act on”, the “Products: G1P” value [1, 3] was “b.d.l” and the “Products: Maltose” value [1, 3] was “b.d.l”. The “Products: Maltotetraose” value [1, 3] was 5 mM and the “Products: Maltotriose” value [1, 3] was “b.d.l”.

With `O=P(O)(O)OP(=O)(O)O` [Pyrophosphate] the “Activity (U/mg protein)” value ([2]; effector 3 mM) was 7.8 U/mg protein and the “% control” value [2, 5] was 98%.

Glycogen was tested, and the “Recognition as substrate” value [1] was “recognizes”, the “Products: G1P” value [1, 3] was 0.5 mM and the “Products: Glycogen” value [1, 3] was 4.5 mM. For the same compound, the “Products: Maltoheptose” value [1, 3] was “b.d.l”, the “Products: Maltohexose” value [1, 3] was “b.d.l” and the “Products: Maltopentaose” value [1, 3] was “b.d.l”. For the same compound, the “Products: Maltose” value [1, 3] was “b.d.l”, the “Products: Maltotetraose” value [1, 3] was “b.d.l” and the “Products: Maltotriose” value [1, 3] was “b.d.l”.

For Maltopentaose, the “Recognition as substrate” value [1] was “recognizes”, the “Products: Maltohexose” value [1, 6] was 0.2 and the “Products: G1P” value [1, 3] was 1.6 mM. For the same compound, the “Products: Maltoheptose” value [1, 3] was “b.d.l”, the “Products: Maltopentaose” value [1, 3] was 2.2 mM and the “Products: Maltose” value [1, 3] was “b.d.l”. The “Products: Maltotetraose” value [1, 3] was 1.0 mM and the “Products: Maltotriose” value [1, 3] was “b.d.l”.

In the case of Maltotriose, the “Recognition as substrate” value [1] is reported as “does not act on”, the “Products: G1P” value [1, 3] is reported as “b.d.l” and the “Products: Maltose” value [1, 3] is reported as “b.d.l”. The “Products: Maltotriose” value [1, 3] was 5 mM.

In the case of starch, the “Recognition as substrate” value [1] is reported as “recognizes”.
